# Data as given in patent US20220257491A1, “Prebiotic Oral Care Compositions and Methods” (Colgate-Palmolive Company, priority 2021, published 2022).
# Marks after values point to notes of the source that are not given here.
# Tests used:
# Format in all cases: cell-based
# F. nucleatum = test: Multi-species biofilm composition: absolute abundance of F. nucleatum; conditions: mean±SD n=3
# Procedure: (§1) Biofilms are grown vertically on Calcium Deficient Hydroxyapatite (CAD-HA) disks (Hitemco Medical, Old Bethpage, USA) using the Amsterdam Active Adhesion model. Biofilms are allowed to establish during 24 h (37° C., 170 rpm) under micro-aerophilic conditions (6% O2, 7% CO2, 7% H2, 80% N2). After this 24 h, disks are rinsed 3 times a day for 3 minutes (RT, 250 rpm), for 3 consecutive days, by transferring the lid containing the disks to a new 24-well plate containing 2 mL/well of the appropriate substrate solution. As a negative control, PBS (pH 5.7) without substrate supplementation is used. After each rinsing step, disks are shortly dip-rinsed in a new 24-well plate containing fresh modified BHI medium (2 mL/well) to remove remaining substrate traces. Subsequently, the lid is transferred to another 24-well plate containing fresh modified BHI medium (2 mL/well), followed by incubation (micro-aerophilic, 37° C., 170 rpm) until the next rinsing step.
# (§2) NADM, N-acetyl-D-glucosamine (“NADG”) and D-(+)-mannose are selected to determine their effects on multi-species biofilm composition. […] decrease in absolute numbers in at least four of the pathogenic bacterial species tested in the assay, compared to the control, the results of which are described in Table 1 below. Absolute abundances of bacterial species are shown as mean±SD (n=3) logarithmic values of the genome equivalents per millilitre (log(Geq/mL)).
# P. gingivalis = test: Multi-species biofilm composition: absolute abundance of P. gingivalis; conditions: mean±SD n=3
# Procedure: as §1, §2
# P. intermedia = test: Multi-species biofilm composition: absolute abundance of P. intermedia; conditions: mean±SD n=3
# Procedure: as §1
# (§3) NADM, N-acetyl-D-glucosamine (“NADG”) and D-(+)-mannose are selected to determine their effects on multi-species biofilm composition. Repeated rinsing of the biofilms with the substrates at a concentration of 1M results in a significant decrease in absolute numbers in at least four of the pathogenic bacterial species tested in the assay, compared to the control, the results of which are described in Table 1 below. Absolute abundances of bacterial species are shown as mean±SD (n=3) logarithmic values of the genome equivalents per millilitre (log(Geq/mL)).
# S. sobrinus = test: Multi-species biofilm composition: absolute abundance of S. sobrinus; conditions: mean±SD n=3
# Procedure: as §1, §2
# S. gordonii = test: Multi-species biofilm composition: absolute abundance of S. gordonii; conditions: mean±SD n=3
# Procedure: as §1, §3
# S. mitis = test: Multi-species biofilm composition: absolute abundance of S. mitis; conditions: mean±SD n=3
# Procedure: as §1, §2
# S. oralis = test: Multi-species biofilm composition: absolute abundance of S. oralis; conditions: for Absolute abundance S. oralis: mean±SD n=3
# Procedure: as §1, §2
# S. salivarius = test: Multi-species biofilm composition: absolute abundance of S. salivarius; conditions: mean±SD n=3
# Procedure: as §1, §3
# V. parvula = test: Multi-species biofilm composition: absolute abundance of V. parvula; conditions: mean±SD n=3
# Procedure: as §1, §3
# [1] = system: P. gingivalis virulence genes; test: Multi-species biofilm virulence gene expression, SYBR RT-qPCR: P. gingivalis; conditions: relative to control, 2^-ΔΔCt, geometric mean n=3
# Procedure: as §1
# (§4) The expression of 33 virulence genes from 4 periodontal pathogens is analysed to evaluate the relative virulence of the substrate-treated biofilms. For all three substrates, virulence gene expression is determined relatively to the control, and these values are also compared between substrates when this is relevant (Tables 5a-5d).
# [2] = system: F. nucleatum virulence genes; test: Multi-species biofilm virulence gene expression, SYBR RT-qPCR: F. nucleatum; conditions: relative to control (=1), 2^-ΔΔCt, geometric mean n=3
# Procedure: as §1, §4
# [3] = system: P. intermedia virulence genes; test: Multi-species biofilm virulence gene expression, SYBR RT-qPCR: P. intermedia; conditions: for Fold Change in virulence gene expression: DnaJ / Fold Change in virulence gene expression: DnaK / Fold Change in virulence gene expression: ECF / Fold Change in virulence gene expression: GroES / Fold Change in virulence gene expression: HtpG / Fold Change in virulence gene expression: KpsD / Fold Change in virulence gene expression: adpc / Fold Change in virulence gene expression: clpB / Fold Change in virulence gene expression: inpA / Fold Change in virulence gene expression: phg: relative to control (=1), 2^-ΔΔCt, geometric mean n=3
# Procedure: as §1, §4
# [4] = system: human oral keratinocytes (HOK-18A); test: IL-8 levels in supernatants of keratinocyte cultures exposed to substrate-treated biofilms; conditions: for IL-8 levels in supernatants of HOK-18A cultures: mean±SD n=3
# Procedure: Cultures of immortalized human oral keratinocytes (HOK-18A) are grown. The relative inflammatory potential of the substrate-treated multi-species biofilms is evaluated by analyzing the expression of five inflammatory mediator genes in human oral keratinocytes (HOKs) exposed to the substrate-treated biofilms. […] The IL-8 levels in the cellular supernatant are determined as well. RNA is converted to cDNA and relative expression of inflammatory mediator genes is determined as described above with respect to the cellular housekeeping gene (3-actin.
# Table 7: IL-8 levels detected in the supernatants of human oral keratinocytes (HOK-18A) cultures exposed to substrate-treated multi-species biofilms are shown as mean±SD (n=3) values (pg/mL). All substrates are dissolved in PBS at a concentration of 1 M (upper part) or 1% (w/v) (lower part). Values between 0 and 1 represent relative downregulation, values >1 represent relative upregulation. […] For such values, statistically significant differences between two experimental conditions are marked with ‘#1’ (vs. NADM), ‘#2’ (vs. NADG), ‘#3’ (vs. D-(+)-mannose) (P<0.05).
compound,measurement,setting,value
"CC(=O)N[C@@H]1C(O)O[C@H](CO)[C@@H](O)[C@@H]1O (stereo partly drawn) [NADM, N-acetyl-D-mannosamine]",Absolute abundance Fn (F. nucleatum),F. nucleatum; substrate 1%(w/v) in PBS,9.60 ± 0.22 log(Geq/mL)
same,Absolute abundance Fn (F. nucleatum),F. nucleatum; substrate 1 M in PBS,8.14 ± 0.44 log(Geq/mL)
same,Absolute abundance Pg (P. gingivalis),P. gingivalis; substrate 1%(w/v) in PBS,7.06 ± 0.30 log(Geq/mL)
same,Absolute abundance Pg (P. gingivalis),P. gingivalis; substrate 1 M in PBS,5.42 ± 0.23 log(Geq/mL)
same,Absolute abundance Pi (P. intermedia),P. intermedia; substrate 1%(w/v) in PBS,7.48 ± 0.40 log(Geq/mL)
same,Absolute abundance Pi (P. intermedia),P. intermedia; substrate 1 M in PBS,9.07 ± 0.06 log(Geq/mL)
same,Absolute abundance S. sobrinus,S. sobrinus; substrate 1%(w/v) in PBS,5.24 ± 0.27 log(Geq/mL)
same,Absolute abundance S. sobrinus,S. sobrinus; substrate 1 M in PBS,6.05 ± 0.23 log(Geq/mL)
same,Absolute abundance S. gord. (S. gordonii),S. gordonii; substrate 1%(w/v) in PBS,8.40 ± 0.10 log(Geq/mL)
same,Absolute abundance S. gord. (S. gordonii),S. gordonii; substrate 1 M in PBS,8.94 ± 0.32 log(Geq/mL)
same,Absolute abundance S. mitis,S. mitis; substrate 1%(w/v) in PBS,< LOD
same,Absolute abundance S. mitis,S. mitis; substrate 1 M in PBS,<LOD
same,Absolute abundance S. oralis,S. oralis; substrate 1%(w/v) in PBS,7.49 ± 0.30 log(Geq/mL)
same,Change in S. oralis numbers compared to the control,S. oralis; substrate 1 M,+2.5 log(Geq/mL)
same,Difference in S. oralis numbers compared to NADG,S. oralis; substrate 1 M,+1.5 log(Geq/mL)
same,Absolute abundance S. oralis,S. oralis; substrate 1 M in PBS,"9.46 ± 0.24*^, #2 log(Geq/mL)"
same,Absolute abundance S. sal. (S. salivarius),S. salivarius; substrate 1%(w/v) in PBS,2.90 ± 0.36 log(Geq/mL)
same,Absolute abundance S. sal. (S. salivarius),S. salivarius; substrate 1 M in PBS,3.34 ± 0.55 log(Geq/mL)
same,Absolute abundance Vp (V. parvula),V. parvula; substrate 1%(w/v) in PBS,10.05 ± 0.17 log(Geq/mL)
same,Absolute abundance Vp (V. parvula),V. parvula; substrate 1 M in PBS,10.76 ± 0.09 log(Geq/mL)
same,Fold Change in virulence gene expression: fimA,[1]; substrate 1%,1.07 fold
same,Fold Change in virulence gene expression: kgp,[1]; substrate 1%,3.46 fold
same,Fold Change in virulence gene expression: partC,[1]; substrate 1%,0.62 fold
same,Fold Change in virulence gene expression: rgpA,[1]; substrate 1%,0.88 fold
same,Fold Change in virulence gene expression: fimA,[1]; substrate 1M,0.50 fold
same,Fold Change in virulence gene expression: kgp,[1]; substrate 1M,0.82 fold
same,Fold Change in virulence gene expression: partC,[1]; substrate 1M,0.20 fold
same,Fold Change in virulence gene expression: rgpA,[1]; substrate 1M,0.43 fold
same,Fold Change in virulence gene expression: ABC transp. perm.,[2]; substrate 1%,0.39 fold
same,Fold Change in virulence gene expression: EF-G,[2]; substrate 1%,0.11 fold
same,Fold Change in virulence gene expression: but.-coA transf.,[2]; substrate 1%,0.38 fold
same,Fold Change in virulence gene expression: hemin receptor,[2]; substrate 1%,0.10 fold
same,Fold Change in virulence gene expression: hemolysin,[2]; substrate 1%,0.55 fold
same,Fold Change in virulence gene expression: ompA,[2]; substrate 1%,0.75 fold
same,Fold Change in virulence gene expression: transposase,[2]; substrate 1%,0.75 fold
same,Fold Change in virulence gene expression: ABC transp. perm.,[2]; substrate 1M,2.46 fold
same,Fold Change in virulence gene expression: EF-G,[2]; substrate 1M,1.37 fold
same,Fold Change in virulence gene expression: but.-coA transf.,[2]; substrate 1M,0.76 fold
same,Fold Change in virulence gene expression: hemin receptor,[2]; substrate 1M,2.81 fold
same,Fold Change in virulence gene expression: hemolysin,[2]; substrate 1M,1.05 fold
same,Fold Change in virulence gene expression: ompA,[2]; substrate 1M,1.27 fold
same,Fold Change in virulence gene expression: transposase,[2]; substrate 1M,1.03 fold
same,"Relative P. intermedia virulence gene expression, downregulation","[3]; substrate 1%(w/v), D-(+)-mannose for 3 genes",2.5- to 7.7 fold
same,Fold Change in virulence gene expression: DnaJ,[3]; substrate 1%,0.19 fold
same,Fold Change in virulence gene expression: DnaK,[3]; substrate 1%,0.31 fold
same,Fold Change in virulence gene expression: ECF,[3]; substrate 1%,0.13 fold
same,Fold Change in virulence gene expression: GroES,[3]; substrate 1%,0.51 fold
same,Fold Change in virulence gene expression: HtpG,[3]; substrate 1%,0.21 fold
same,Fold Change in virulence gene expression: KpsD,[3]; substrate 1%,0.35 fold
same,Fold Change in virulence gene expression: adpc,[3]; substrate 1%,0.21 fold
same,Fold Change in virulence gene expression: clpB,[3]; substrate 1%,0.40 fold
same,Fold Change in virulence gene expression: inpA,[3]; substrate 1%,0.28 fold
same,Fold Change in virulence gene expression: phg,[3]; substrate 1%,0.26 fold
same,Fold Change in virulence gene expression: DnaJ,[3]; substrate 1M,0.15 fold
same,Fold Change in virulence gene expression: DnaK,[3]; substrate 1M,0.70 fold
same,Fold Change in virulence gene expression: ECF,[3]; substrate 1M,0.55 fold
same,Fold Change in virulence gene expression: GroES,[3]; substrate 1M,0.45 fold
same,Fold Change in virulence gene expression: HtpG,[3]; substrate 1M,0.35 fold
same,Fold Change in virulence gene expression: KpsD,[3]; substrate 1M,0.41 fold
same,Fold Change in virulence gene expression: adpc,[3]; substrate 1M,0.70 fold
same,Fold Change in virulence gene expression: clpB,[3]; substrate 1M,0.40 fold
same,Fold Change in virulence gene expression: inpA,[3]; substrate 1M,0.64 fold
same,Fold Change in virulence gene expression: phg,[3]; substrate 1M,0.15 fold
same,IL-8 levels in supernatants of HOK-18A cultures,[4]; biofilm rinsed with substrate 1%(w/v),30.32 ± 6.26 pg/mL
same,IL-8 levels in supernatants of HOK-18A cultures,[4]; biofilm rinsed with substrate 1M,0.59 ± 0.61 pg/mL
same,Reduced IL-8 levels compared to the control,[4]; substrate 1%(w/v),2.4 fold
